Measured values as given in PubChem BioAssay (NCI).
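Step 1: Grow cells in 96-well plates. Step 2: Expose to compound for 48 hours at 5 concentrations. Step 3: Interpolate endpoints linearly; if unreached, use highest concentration. GI50: concentration for 50% inhibition of growth. TGI: concentration producing complete growth inhibition.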

Columns and labels:
Assay in all cases: NCI tumour cell line growth inhibition, 48 h
KM12 colon = system: KM12 colon
HOP-62 NSCLC = system: HOP-62 NSCLC
U251 CNS = system: U251 CNS
EKVX NSCLC = system: EKVX NSCLC
MCF7 breast = system: MCF7 breast
OVCAR-5 ovarian = system: OVCAR-5 ovarian
NCI-H460 lung = system: NCI-H460 lung
M14 melanoma = system: M14 melanoma
NCI-H226 lung = system: NCI-H226 lung
NCI/ADR-RES ovarian = system: NCI/ADR-RES ovarian
SK-MEL-2 melanoma = system: SK-MEL-2 melanoma
PC-3 prostate = system: PC-3 prostate
HS 578T breast = system: HS 578T breast
MDA-MB-435 = system: MDA-MB-435
SW-620 colon = system: SW-620 colon
UACC-62 melanoma = system: UACC-62 melanoma
IGROV1 ovarian = system: IGROV1 ovarian
A498 renal = system: A498 renal
OVCAR-3 ovarian = system: OVCAR-3 ovarian
RPMI-8226 leukemia = system: RPMI-8226 leukemia
COLO 205 colon = system: COLO 205 colon
SF-539 CNS = system: SF-539 CNS
TK-10 renal = system: TK-10 renal
CCRF-CEM leukemia = system: CCRF-CEM leukemia
MALME-3M melanoma = system: MALME-3M melanoma
HOP-92 NSCLC = system: HOP-92 NSCLC
T-47D breast = system: T-47D breast
OVCAR-4 ovarian = system: OVCAR-4 ovarian
LOX IMVI melanoma = system: LOX IMVI melanoma
SK-OV-3 ovarian = system: SK-OV-3 ovarian
HCT-116 colon = system: HCT-116 colon
DU-145 prostate = system: DU-145 prostate
ACHN renal = system: ACHN renal
UO-31 renal = system: UO-31 renal
MOLT-4 leukemia = system: MOLT-4 leukemia
786-0 renal = system: 786-0 renal
HCT-15 colon = system: HCT-15 colon
SN12C renal = system: SN12C renal
K-562 leukemia = system: K-562 leukemia
SF-295 CNS = system: SF-295 CNS
SK-MEL-28 melanoma = system: SK-MEL-28 melanoma
NCI-H522 lung = system: NCI-H522 lung
HT29 colon = system: HT29 colon
SF-268 CNS = system: SF-268 CNS
BT-549 breast = system: BT-549 breast
SNB-19 CNS = system: SNB-19 CNS
SK-MEL-5 melanoma = system: SK-MEL-5 melanoma
RXF 393 renal = system: RXF 393 renal
CAKI-1 renal = system: CAKI-1 renal
MDA-MB-231 breast = system: MDA-MB-231 breast
NCI-H23 lung = system: NCI-H23 lung
SNB-75 CNS = system: SNB-75 CNS
OVCAR-8 ovarian = system: OVCAR-8 ovarian
SR leukemia = system: SR leukemia
A549 NSCLC = system: A549 NSCLC
HCC-2998 colon = system: HCC-2998 colon
UACC-257 melanoma = system: UACC-257 melanoma
HL-60(TB) leukemia = system: HL-60(TB) leukemia
MDA-N = system: MDA-N

COC1C(OC(=O)/C=C/C=C/C=C/C=C\C(=O)O)CCC2(CO2)C1C1(C)OC1CC=C(C)C (stereo not drawn)
GI50 (KM12 colon): > 200 µM | TGI (KM12 colon): > 200 µM | GI50 (HOP-62 NSCLC): > 200 µM | TGI (HOP-62 NSCLC): > 200 µM | GI50 (U251 CNS): > 200 µM | TGI (U251 CNS): > 200 µM | GI50 (EKVX NSCLC): > 200 µM | TGI (EKVX NSCLC): > 200 µM | GI50 (MCF7 breast): > 200 µM | TGI (MCF7 breast): > 200 µM | GI50 (OVCAR-5 ovarian): > 200 µM | TGI (OVCAR-5 ovarian): > 200 µM | GI50 (NCI-H460 lung): > 200 µM | TGI (NCI-H460 lung): > 200 µM | GI50 (M14 melanoma): > 200 µM | TGI (M14 melanoma): > 200 µM | GI50 (NCI-H226 lung): > 200 µM | TGI (NCI-H226 lung): > 200 µM | GI50 (NCI/ADR-RES ovarian): > 200 µM | TGI (NCI/ADR-RES ovarian): > 200 µM | GI50 (SK-MEL-2 melanoma): > 200 µM | TGI (SK-MEL-2 melanoma): > 200 µM | GI50 (PC-3 prostate): > 200 µM | TGI (PC-3 prostate): > 200 µM | GI50 (HS 578T breast): > 200 µM | TGI (HS 578T breast): > 200 µM | GI50 (MDA-MB-435): > 200 µM | TGI (MDA-MB-435): > 200 µM | GI50 (SW-620 colon): > 200 µM | TGI (SW-620 colon): > 200 µM | GI50 (UACC-62 melanoma): > 200 µM | TGI (UACC-62 melanoma): > 200 µM | GI50 (IGROV1 ovarian): > 200 µM | TGI (IGROV1 ovarian): > 200 µM | GI50 (A498 renal): > 200 µM | TGI (A498 renal): > 200 µM | GI50 (OVCAR-3 ovarian): > 200 µM | TGI (OVCAR-3 ovarian): > 200 µM | GI50 (RPMI-8226 leukemia): > 200 µM | TGI (RPMI-8226 leukemia): > 200 µM | GI50 (COLO 205 colon): > 200 µM | TGI (COLO 205 colon): > 200 µM | GI50 (SF-539 CNS): > 200 µM | TGI (SF-539 CNS): > 200 µM | GI50 (TK-10 renal): > 200 µM | TGI (TK-10 renal): > 200 µM | GI50 (CCRF-CEM leukemia): > 200 µM | TGI (CCRF-CEM leukemia): > 200 µM | TGI (MALME-3M melanoma): > 200 µM | GI50 (HOP-92 NSCLC): > 200 µM | TGI (HOP-92 NSCLC): > 200 µM | GI50 (T-47D breast): > 200 µM | TGI (T-47D breast): > 200 µM | GI50 (OVCAR-4 ovarian): > 200 µM | TGI (OVCAR-4 ovarian): > 200 µM | GI50 (LOX IMVI melanoma): > 200 µM | TGI (LOX IMVI melanoma): > 200 µM | GI50 (SK-OV-3 ovarian): > 200 µM | TGI (SK-OV-3 ovarian): > 200 µM | GI50 (HCT-116 colon): > 200 µM | TGI (HCT-116 colon): > 200 µM | GI50 (DU-145 prostate): > 200 µM | TGI (DU-145 prostate): > 200 µM | GI50 (ACHN renal): > 200 µM | TGI (ACHN renal): > 200 µM | GI50 (UO-31 renal): > 200 µM | TGI (UO-31 renal): > 200 µM | GI50 (MOLT-4 leukemia): > 200 µM | TGI (MOLT-4 leukemia): > 200 µM | GI50 (786-0 renal): > 200 µM | TGI (786-0 renal): > 200 µM | GI50 (HCT-15 colon): > 200 µM | TGI (HCT-15 colon): > 200 µM | GI50 (SN12C renal): > 200 µM | TGI (SN12C renal): > 200 µM | GI50 (K-562 leukemia): > 200 µM | TGI (K-562 leukemia): > 200 µM | GI50 (SF-295 CNS): > 200 µM | TGI (SF-295 CNS): > 200 µM | GI50 (SK-MEL-28 melanoma): > 200 µM | TGI (SK-MEL-28 melanoma): > 200 µM | GI50 (NCI-H522 lung): > 200 µM | TGI (NCI-H522 lung): > 200 µM | GI50 (HT29 colon): > 200 µM | TGI (HT29 colon): > 200 µM | GI50 (SF-268 CNS): > 200 µM | TGI (SF-268 CNS): > 200 µM | GI50 (BT-549 breast): > 200 µM | TGI (BT-549 breast): > 200 µM | GI50 (SNB-19 CNS): > 200 µM | TGI (SNB-19 CNS): > 200 µM | GI50 (SK-MEL-5 melanoma): > 200 µM | TGI (SK-MEL-5 melanoma): > 200 µM | GI50 (RXF 393 renal): > 200 µM | TGI (RXF 393 renal): > 200 µM | GI50 (CAKI-1 renal): > 200 µM | TGI (CAKI-1 renal): > 200 µM | GI50 (MDA-MB-231 breast): > 200 µM | TGI (MDA-MB-231 breast): > 200 µM | GI50 (NCI-H23 lung): > 200 µM | TGI (NCI-H23 lung): > 200 µM | GI50 (SNB-75 CNS): > 200 µM | TGI (SNB-75 CNS): > 200 µM

Nc1nc2ccc(OCC(O)CN3CCCCC3)cc2[n+]([O-])n1 (stereo not drawn)
TGI (KM12 colon): > 100 µM | TGI (OVCAR-8 ovarian): > 100 µM | TGI (U251 CNS): > 100 µM | TGI (MCF7 breast): > 100 µM | TGI (OVCAR-5 ovarian): > 100 µM | TGI (SR leukemia): > 100 µM | TGI (NCI-H460 lung): > 100 µM | TGI (A549 NSCLC): > 100 µM | TGI (M14 melanoma): > 100 µM | TGI (NCI-H226 lung): > 100 µM | TGI (NCI/ADR-RES ovarian): > 100 µM | TGI (HCC-2998 colon): > 100 µM | TGI (SK-MEL-2 melanoma): > 100 µM | TGI (UACC-257 melanoma): > 100 µM | TGI (PC-3 prostate): > 100 µM | TGI (MDA-MB-435): > 100 µM | TGI (SW-620 colon): > 100 µM | TGI (A498 renal): > 100 µM | TGI (OVCAR-3 ovarian): > 100 µM | TGI (RPMI-8226 leukemia): > 100 µM | TGI (HL-60(TB) leukemia): > 100 µM | TGI (MDA-N): > 100 µM | TGI (COLO 205 colon): > 100 µM | TGI (SF-539 CNS): > 100 µM | TGI (TK-10 renal): > 100 µM | TGI (CCRF-CEM leukemia): > 100 µM | TGI (MALME-3M melanoma): > 100 µM | TGI (HOP-92 NSCLC): > 100 µM | TGI (OVCAR-4 ovarian): > 100 µM | TGI (HCT-116 colon): > 100 µM | TGI (DU-145 prostate): > 100 µM | TGI (ACHN renal): > 100 µM | TGI (UO-31 renal): > 100 µM | TGI (MOLT-4 leukemia): > 100 µM | TGI (786-0 renal): > 100 µM | TGI (HCT-15 colon): > 100 µM | TGI (SN12C renal): > 100 µM | TGI (K-562 leukemia): > 100 µM | TGI (SF-295 CNS): > 100 µM | TGI (SK-MEL-28 melanoma): > 100 µM | TGI (NCI-H522 lung): > 100 µM | TGI (HT29 colon): > 100 µM | TGI (BT-549 breast): > 100 µM | TGI (SNB-19 CNS): > 100 µM | TGI (SK-MEL-5 melanoma): > 100 µM | TGI (RXF 393 renal): > 100 µM | TGI (CAKI-1 renal): > 100 µM | TGI (MDA-MB-231 breast): > 100 µM | TGI (NCI-H23 lung): > 100 µM | TGI (SNB-75 CNS): > 100 µM
